This note sets out measurements from patent US4267176A, “Amino or acylamino-substituted pyrimidinyl cephalosporanic acid derivatives and pharmaceutical compositions thereof” (Fujisawa Pharmaceutical Co., Ltd., priority 1977, dated 1981).

≈ marks a conversion by molar mass, not a printed value.

Test [1] concerns Pseudomonas aeruginosa NCTC-10490. Nature of the test: In vitro antibacterial activity, two-fold agar-plate dilution method (MIC), Pseudomonas aeruginosa. Format: cell-based. As to conditions: NCTC10490, heart infusion agar, 37° C. for 20 hours, approximately 10^6 cells per ml, read-out: MIC (minimal inhibitory concentration). As for the experimental part:
(§1) In vitro antibacterial activity was determined by the two-fold agar-plate dilution method as described below. One loopful of an overnight culture of each test strain in Trypticase-soy broth (approximately 10^6 […] cells per ml.) was streaked on heart infusion agar (HI-agar) containing graded concentrations of antibiotics, and the minimal inhibitory concentration (MIC) was expressed in […] of μg/ml after incubation at 37° C. for 20 hours.

In test [2] the test system is Proteus vulgaris IAM 1025. Nature of the test: In vitro antibacterial activity, two-fold agar-plate dilution method (MIC), Proteus vulgaris. It is filed as cell-based. The settings on record: IAM1025, heart infusion agar, 37° C. for 20 hours, approximately 10^6 cells per ml, read-out: MIC (minimal inhibitory concentration). As for the experimental part:
as §1

Regarding `CCO/N=C(\C(=O)NC1C(=O)N2C(C(=O)O)=C(CSc3nncs3)CSC12)c1nccc(N)n1` (stereo not drawn) [compound 1, 7-[2-(4-Aminopyrimidin-2-yl)-2-ethoxyiminoacetamido]-3-(1,3,4-thiadiazol-2-ylthiomethyl)-3-cephem-4-carboxylic acid (syn isomer)], the MIC was below 1.56 µg/mL in test [1] and below 0.025 µg/mL in test [2].
For `C=CCn1nnnc1SCC1=C(C(=O)O)N2C(=O)C(NC(=O)/C(=N\OC)c3nccc(N)n3)C2SC1` (stereo not drawn) [compound 2, 7-[2-(4-Aminopyrimidin-2-yl)-2-methoxyiminoacetamido]-3-[(1-allyl-1H-tetrazol-5-yl)thiomethyl]-3-cephem-4-carboxylic acid (syn isomer)], in that order: 6.25 µg/mL (≈ 11.7 µM) and below 0.025 µg/mL.
The corresponding values for `C=CCO/N=C(\C(=O)NC1C(=O)N2C(C(=O)O)=C(CSc3nncs3)CSC12)c1nccc(N)n1` (stereo not drawn) [compound 3, 7-[2-Allyloxyimino-2-(4-aminopyrimidin-2-yl)acetamido]-3-(1,3,4-thiadiazol-2-ylthiomethyl)-3-cephem-4-carboxylic acid (syn isomer)] are below 1.56 µg/mL and 0.05 µg/mL (≈ 0.0935 µM).
For `CCCO/N=C(\C(=O)NC1C(=O)N2C(C(=O)O)=C(CSc3nncs3)CSC12)c1nccc(N)n1` (stereo not drawn) [compound 4, 7-[2-(4-Aminopyrimidin-2-yl)-2-propoxyiminoacetamido]-3-(1,3,4-thiadiazol-2-ylthiomethyl)-3-cephem-4-carboxylic acid (syn isomer)], in that order: below 1.56 µg/mL and below 0.025 µg/mL.
For the compound `Nc1cccc(/C(=N/OCC(F)(F)F)C(=O)NC2C(=O)N3C(C(=O)O)=C(CSc4nnnn4CC(=O)O)CSC23)n1` (stereo not drawn) [compound 5, 7-[2-(6-Aminopyridin-2-yl)-2-(2,2,2-trifluoroethoxyimino)acetamido]-3-[(1-carboxymethyl-1H-tetrazol-5-yl)thiomethyl]-3-cephem-4-carboxylic acid (syn isomer)], the figures for the MIC in test [1] and in test [2] were below 1.56 µg/mL and 0.025 µg/mL (≈ 0.0405 µM), respectively.
For the compound `CO/N=C(\C(=O)NC1C(=O)N2C(C(=O)O)=C(CSc3nnnn3C)CSC12)c1cccc(N)n1` (stereo not drawn) [compound 6, 7-[2-(6-aminopyridin-2-yl)-2-methoxyiminoacetamido]-3-(1-methyl-1H-tetrazol-5-yl)thiomethyl-3-cephem-4-carboxylic acid (syn isomer)], the MIC is at most 1.56 µg/mL in test [1] and at most 0.025 µg/mL in test [2].
The corresponding values for `CON=C(C(=O)NC1C(=O)N2C(C(=O)O)=CCS[C@H]12)c1cccc(N)n1` (stereo partly shown) [compound 7, 7-[2-(6-aminopyridin-2-yl)-2-methoxyiminoacetamido]-3-cephem-4-carboxylic acid] are 6.25 µg/mL (≈ 16.6 µM) and at most 0.025 µg/mL.
For `CO/N=C(\C(=O)NC1C(=O)N2C(C(=O)O)=C(COC(N)=O)CSC12)c1cccc(N)n1` (stereo not drawn) [compound 8, 7-[2-(6-aminopyridin-2-yl)-2-methoxyiminoacetamido]-3-carbamoyloxymethyl-3-cephem-4-carboxylic acid (syn isomer)], in that order: 3.13 µg/mL (≈ 6.95 µM) and 0.05 µg/mL (≈ 0.111 µM).
For `CO/N=C(\C(=O)NC1C(=O)N2C(C(=O)O)=C(COC(C)=O)CSC12)c1cccc(N)n1` (stereo not drawn) [compound 9, 7-[2-(6-aminopyridin-2-yl)-2-methoxyiminoacetamido]cephalosporanic acid (syn isomer)], in that order: at most 1.56 µg/mL and at most 0.025 µg/mL.
Consider `CON=C(C(=O)NC1C(=O)N2C(C(=O)O)=C(CSc3nnnn3C)CS[C@H]12)c1ccnc(N)n1` (stereo partly shown) [compound 10, 7-[2-(2-aminopyrimidin-4-yl)-2-methoxyiminoacetamido]-3-(1-methyl-1H-tetrazol-5-yl)thiomethyl-3-cephem-4-carboxylic acid], for which the MIC in test [1] was found to be 6.25 µg/mL (≈ 12.3 µM); in test [2] it was 0.2 µg/mL (≈ 0.395 µM).
The corresponding values for `CO/N=C(\C(=O)NC1C(=O)N2C(C(=O)O)=C(CSc3nnnn3C)CSC12)c1nccc(N)n1` (stereo not drawn) [compound 11, 7-[2-(4-aminopyrimidin-2-yl)-2-methoxyiminoacetamido]-3-(1-methyl-1H-tetrazol-5-ylthiomethyl)-3-cephem-4-carboxylic acid (syn isomer)] are below 1.56 µg/mL and at most 0.025 µg/mL.
For `C=CCO/N=C(\C(=O)NC1C(=O)N2C(C(=O)O)=C(CSc3nnnn3C)CSC12)c1cccc(N)n1` (stereo not drawn) [compound 12, 7-[2-allyloxyimino-2-(6-aminopyridin-2-yl)acetamido]-3-(1-methyl-1H-tetrazol-5-ylthiomethyl)-3-cephem-4-carboxylic acid (syn isomer)], in that order: at most 1.56 µg/mL and 0.05 µg/mL (≈ 0.0941 µM).
The corresponding values for `C#CCO/N=C(\C(=O)NC1C(=O)N2C(C(=O)O)=C(CSc3nnnn3C)CSC12)c1cccc(N)n1` (stereo not drawn) [compound 13, 7-[2-(6-aminopyridin-2-yl)-2-propargyloxyiminoacetamido]-3-(1-methyl-1H-tetrazol-5-ylthiomethyl)-3-cephem-4-carboxylic acid (syn isomer)] are at most 1.56 µg/mL and 0.05 µg/mL (≈ 0.0944 µM).
Regarding `CCO/N=C(\C(=O)NC1C(=O)N2C(C(=O)O)=CC(C)SC12)c1cccc(N)n1` (stereo not drawn) [compound 14, 7-[2-(6-aminopyridin-2-yl)-2-ethoxyiminoacetamido]-2-methyl-3-cephem-4-carboxylic acid (syn isomer)], the MIC was below 1.56 µg/mL in test [1] and 0.05 µg/mL (≈ 0.123 µM) in test [2].
